Test results as given in US11008619B2, “Diagnostic markers for platelet function and methods of use” (Duke University, priority 2012, dated 2021).

Assays:
[1] = tested on: non COX-1 dependent platelet function (NCDPF); assay: Platelet function score (PFS) in aspirin challenge study; type: in vivo, human; settings: for mean difference in Pre vs. Post PFS: before vs 3 hrs after single 325 mg aspirin, p<0.0001; for Post PFS: after first 325 mg dose
Procedure: A group of healthy adult volunteers (HV1) were recruited and a defined set of platelet function measurements, as described below, were made before aspirin (“Pre”) and 3-hrs after (“Post”) a single 325 mg tablet of aspirin. Subsequently, subjects were returned for a final assessment (“Final”) 2 weeks after 325 mg/day aspirin. This dose of aspirin was chosen to ensure complete suppression of platelet COX-1 activity in each participant. The 3-hour timepoint was chosen to measure the maximal inhibitory effect of aspirin.
(§1) Platelet function studies. Before each visit, subjects were asked to fast and to refrain from tobacco (during the preceding 24 hrs) and alcohol or intensive exercise on the day of testing. Phlebotomy was performed after 10 minutes of resting supine with minimal trauma or stasis at the venipuncture site using a 21-gauge needle into 3.2% sodium citrate tubes. The focus of these studies was around NCDPF and thus, the NCDPF assays were defined as the following: PFA100, and epinephrine, ADP, and collagen induced LTA. […] Serum thromboxane B2 and AA induced aggregation were chosen as measures of COX-1 activity and also added in vitro aspirin to the AA aggregation assay to further assess for any evidence of unsuppressed COX-1 activity.
(§2) Light transmittance aggregometry. Light transmittance aggregometry (LTA) was performed as previously described (Born (1964) Nature 202:95-96) using the following agonists: arachidonic acid (AA, Chrono-log, 0.5 mM), epinephrine (Chrono-Log, 10, 1, and 0.5 μM), ADP (Chrono-Log, 10, 5, and 1 μM), and collagen (Chrono-Log, 5 and 2 μg/ml). The area under the LTA curve (AUC) was chosen as the primary measure of aggregation because the AUC captures several features of the aggregometry curve that are each sensitive to the effects of aspirin: slope, maximal aggregation, and final aggregation. To standardize AUC measurements across individuals and visits the test duration was fixed at 12 minutes for epinephrine and six minutes for collagen, AA, and ADP.
Platelet Function Analyzer. PFA100 closure time with the use of the collagen/epinephrine cartridge was performed. […] Briefly, citrated whole blood was placed in the PFA100 chamber and blood was aspirated through an aperture in a collagen/epinephrine coated membrane. The amount of time (in seconds[s], up to a maximum of 300 s) until blood ceased to flow through the membrane aperture was recorded as the final result.
Platelet Function Score. […] A platelet function score was derived from a principal components analysis (PCA) of all platelet function measurements made in the HV1 cohort. PCA was chosen to quantify this biological factor. PCA is an unbiased, mathematical technique for reducing a collection of measurements down to a single “meta-measurement” that best describes the aggregate behavior of the set. For example, in the biological sciences, PCA can quantify population substructure in genome wide association studies, patterns of gene expression in microarray experiments, and metabolic pathways in metabolomic studies. In the present study, the input into the PCA was the following set of non-imputed measures from the HV1 cohort: the PFA100 closure time and the AUC from each concentration of ADP, epinephrine, and collagen LTA.

[2] = tested on: COX-1 dependent platelet function; assay: Arachidonic acid-induced platelet aggregation (light transmittance aggregometry), with and without in vitro aspirin; type: in vivo, human
Procedure: as §1, §2

COX-1 activity = assay: Serum thromboxane B2 ELISA; type: in vivo, human; settings: HV2; Final visit after 4 weeks 325 mg/day aspirin; range 0.1-2.0
Procedure: as §1

[3] = tested on: non COX-1 dependent platelet function (NCDPF); assay: In vitro addition of aspirin to PRP, epinephrine/ADP/collagen induced light transmittance aggregometry; type: cell-based, human; settings: n=5 HV2 and n=15 DM on daily aspirin
Procedure: Light transmittance aggregometry. […] The area under the LTA curve (AUC) was chosen as the primary measure of aggregation because the AUC captures several features of the aggregometry curve that are each sensitive to the effects of aspirin: slope, maximal aggregation, and final aggregation. To standardize AUC measurements across individuals and visits the test duration was fixed at 12 minutes for epinephrine and six minutes for collagen, AA, and ADP.
Description of area under the curve (AUC) measurement. Using light transmittance aggregometry the percent aggregation is plotted over time to produce the upper curve similar to FIG. 21. The AUC is measured by the aggregometer over the duration of the test, which is fixed at 6 minutes for collagen and ADP and 12 minutes for epinephrine. Higher AUC values reflect higher maximal and residual aggregation, slope, and velocities.
In vitro aspirin. A stock solution of aspirin was created by dissolving acetylsalicylic acid (Sigma-Aldrich A5376) into DMSO and aliquots stored at −80 degrees Celsius. On the day of use, fresh aliquots were thawed, diluted in PBS, and stored at 4 degrees Celsius. […] The PRP was allowed to incubate with in vitro aspirin for 10 minutes at room temperature prior to the addition of agonist.

[4] = tested on: RUNX1 P1 and total transcripts in purified platelets; assay: Platelet RNA RT-PCR for RUNX1 transcripts before and after aspirin exposure; type: in vivo, human; settings: healthy volunteers, before vs after aspirin exposure
Procedure: Platelet purification and RNA isolation.
RNA was extracted from peripheral blood derived platelets using the miRvana miRNA Isolation Kit (Life Technologies) with acid-phenol chloroform (Life Technologies) separation. Due to the low concentration of available platelet RNA, concentration and integrity were assessed using the Agilent 2100 Bioanalyzer Pico chips (Agilent Technologies; Santa Clara, Calif.). The concentration was too low for accurate determination via standard spectrophotometric methods and for the Agilent Pico RIN algorithm to accurately determine a RIN quality score. As a result, quality was assessed by visualization of the Bioanalyzer lane curve. RNA samples with obvious 18S and 28S peaks, minimal degradation “noise” between peaks, and no large aberrant peaks above or below the 18S and 28S bands were selected for further analysis. […]
Concentration and integrity of available platelet RNA were assessed using Agilent 2100 Bioanalyzer Pico chips (Agilent Technologies; Santa Clara, Calif.). […] As a result, quality was assessed by visualization of the Bioanalyzer trace. […]
A loading test plate was run using 4 samples; 2 from each experimental group. […] Optimal loading would result in expression of our lowest targets of interest resulting in Cq values <35, abundant transcripts >18 and a minimal loss of low quantity samples to high RNA loading requirements. […]

[5] = tested on: human promyelocytic cell line (HL60); settings: HL60, in vitro aspirin vs vehicle-only control; cited from earlier work

CC(=O)Oc1ccccc1C(=O)O [aspirin, acetylsalicylic acid]
mean difference in Pre vs. Post PFS ([1]; DM diabetics, 95% CI 3.6-4.8): 4.2 | mean difference Post and Final PFS ([1]; HV1, after two weeks of 325 mg/day aspirin, shifted higher, CI 0.1-0.8, p=0.01): 0.5 | mean difference in Pre vs. Post PFS ([1]; HV1 healthy volunteers, 95% CI 3.0-3.7): 3.4 | mean difference between Post and Final PFS ([1]; HV2, after four weeks of 325 mg/day aspirin, shift to higher PFS, CI 0.2-1.2, p=0.004): 0.7 | mean difference in Pre vs. Post PFS ([1]; HV2 healthy volunteers, 95% CI 4.5-5.2): 4.8 | Post PFS ([1]; HV2 subjects that decreased their Final PFS): 1.68 | Post PFS ([1]; HV2 subjects that increased their Final PFS): −1.0 | AAA median % aggregation ([2]; HV2 and DM subjects, Final visit on daily 325 mg aspirin, range 0-7%): 3.0% | effect of in vitro addition of aspirin on AAA ([2]; in vitro aspirin 53 μM added after 325 mg oral dose, HV2 and DM): no further effect | COX-1 dependent platelet function, as assessed by AAA ([2]; single 325 mg dose, all HV2 and DM subjects, AA 0.5 mM): effectively suppressed | serum thromboxane B2 mean concentration (COX-1 activity): 0.3 ng/mL | mean change aggregation with in vitro aspirin ([3]; ADP 5 μM, CI −6.9-2.4%, p=0.3): −2.3% | mean change aggregation with in vitro aspirin ([3]; collagen 2 mg/ml, CI −6.9, 10.0, p=0.71): 1.5% | mean change aggregation with in vitro aspirin ([3]; epinephrine 0.5, CI −0.8-4.8%, p=0.2): 2.0% | change in total RUNX1 gene expression [4]: minimal changes | up (or down) regulation in P1 RUNX1 expression [4]: ≤ 5 fold | expression of a P1-specific RUNX1 probe set [5]: increased | expression of the remaining RUNX1 probe sets [5]: did not change | expression of two P2 RUNX1 probe sets [5]: decreased
